Results as given in patent publication US20260125346A1, “Isoquinolinone Derivatives and 4H-Quinolizinone Derivatives and Pharmaceutical Compositions Thereof for the Treatment of Disease” (BeOne Medicines I GmbH, priority 2023, published 2026).

Columns and labels:
WT cell line SK-BR-3 [1] = test: Phospho-AKT (Ser473) Inhibition Assay (HTRF), SK-BR-3; assay type: cell-based; conditions: Homo sapiens; SK-BR-3, 1 hour treatment; read-out: p-AKT Inhibition assay (S473) IC50 SK-BR-3
In short: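 SK-BR-3 (PI3Kα WT) cells seeded overnight in MEM with insulin, then treated 1 h with 11-point 1:3 dilutions (10 μM to 0.1 nM, 0.1% DMSO). Lysates read for phospho-AKT Ser473 by HTRF after 4 h antibody incubation at room temperature. IC50 from 4-parameter fit, % inhibition normalized to DMSO (max) and 10 μM GDC0077 (min).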

WT cell line SK-BR-3 [2] = test: Cell Proliferation Assay (CellTiter-Glo), SK-BR-3; assay type: cell-based; conditions: Homo sapiens, 72 h; SK-BR-3, 3 days treatment
Procedure: The SK-BR-3 (ATCC, HTB-30) cell line was obtained from the American Type Culture Collection. Cells were maintained in McCoy' 5A medium (Gibco, REF #16600108) supplemented with 10% Fetal Bovine Serum. Cultures were maintained in a humidified incubator at 37° C. under 5% CO2/95% air.
Cell Proliferation Assay. PI3Kα H1047R mutated cell line T-47D cells and WT cell line SK-BR-3 were seeded at a density of 3×10^3 cells per well in 96 well plate (Xinyou Biotechnology, 062096) in 95 μL of culture medium, overnight. Compounds dissolved in 10 mM stock solutions in DMSO were serially diluted 1:3 in DMSO to generate a 9-point dilution series and plated using an INTEGRA ASSIST Plus pipetting robot. A 20× intermediate compound dilution plate in RPMI1640 medium (200 M starting compound concentration in 2% DMSO) was then prepared. Five μL of intermediate serially diluted compounds were added to the cell plate to final concentrations ranging from […] to 1 nM in 0.1% DMSO. 0.1% DMSO alone was used to establish the maximum signal and medium without cells was for minimum signal. After 3 days treatment, equilibrated the plate and its contents at room temperature for approximately 30 minutes. Added 30 μL CellTiter-Glo® Reagent (Promega, REF #G7571) to each well. Then mixed contents for 5 min on plate shaker to induce cell lysis. Incubated at room temperature for 10 minutes to stabilize luminescent signal. The plates were read on PHERAstar FSX Microplate reader using standard luminescence settings.
Relative IC50 values were determined using luminescence units by calculating percent inhibition with respect to the in-plate “MIN” (medium only) and “MAX” (0.1% DMSO) controls. The data were analyzed using a 4-parameter nonlinear logistic equation (four-parameter logistic concentration-response curve): Y=bottom+[(top−bottom)/1+(X/IC50) slope] • where Y=% inhibition, X=concentration of inhibitor, bottom=minimum value of y attained by curve-fit, top=maximum value of y attained by curve-fit and slope=steepness of curve at the IC50.

[3] = target: PI3Kα (p110[H1047R]/p85) kinase (Homo sapiens, UniProt P42336, H1047R); test: PI3Kα (p110[H1047R]/p85) kinase ADP-Glo Assay; assay type: biochemical; conditions: 25 uM ATP; for selectivity: WT/H1047R: ADP-Glo Assay IC50 ratio
Chain of PI3Kα (p110[H1047R]/p85) kinase (P42336 whole entry H1047R): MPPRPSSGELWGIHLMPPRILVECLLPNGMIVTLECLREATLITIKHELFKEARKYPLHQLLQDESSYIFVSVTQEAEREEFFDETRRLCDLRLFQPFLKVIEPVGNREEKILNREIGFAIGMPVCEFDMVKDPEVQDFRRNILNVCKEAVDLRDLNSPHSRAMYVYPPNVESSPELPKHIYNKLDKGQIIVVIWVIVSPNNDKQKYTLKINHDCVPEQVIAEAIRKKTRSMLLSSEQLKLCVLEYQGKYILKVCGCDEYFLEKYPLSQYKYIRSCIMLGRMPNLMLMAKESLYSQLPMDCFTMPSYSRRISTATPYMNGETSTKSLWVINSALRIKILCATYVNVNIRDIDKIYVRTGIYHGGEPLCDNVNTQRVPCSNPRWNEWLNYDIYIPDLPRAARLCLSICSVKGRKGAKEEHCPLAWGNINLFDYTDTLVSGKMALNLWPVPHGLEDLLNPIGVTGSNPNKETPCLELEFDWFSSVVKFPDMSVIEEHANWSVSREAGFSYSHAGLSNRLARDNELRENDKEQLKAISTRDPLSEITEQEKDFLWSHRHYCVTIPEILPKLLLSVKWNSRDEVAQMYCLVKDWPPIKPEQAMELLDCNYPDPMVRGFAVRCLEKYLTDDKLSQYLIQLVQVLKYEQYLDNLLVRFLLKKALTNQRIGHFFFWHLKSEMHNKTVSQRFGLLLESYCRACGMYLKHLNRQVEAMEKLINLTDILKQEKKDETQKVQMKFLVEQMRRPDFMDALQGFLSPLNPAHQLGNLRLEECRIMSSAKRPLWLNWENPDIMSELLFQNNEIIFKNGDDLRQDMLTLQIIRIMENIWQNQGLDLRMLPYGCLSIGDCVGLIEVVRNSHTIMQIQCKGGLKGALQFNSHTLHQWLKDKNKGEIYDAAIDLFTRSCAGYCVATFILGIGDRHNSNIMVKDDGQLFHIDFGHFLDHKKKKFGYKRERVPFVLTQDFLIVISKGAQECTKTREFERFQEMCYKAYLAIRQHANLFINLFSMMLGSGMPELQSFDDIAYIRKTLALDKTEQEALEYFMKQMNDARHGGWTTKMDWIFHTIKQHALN
Chain of PI3Kα (p110[H1047R]/p85) kinase (P27986 whole entry partner): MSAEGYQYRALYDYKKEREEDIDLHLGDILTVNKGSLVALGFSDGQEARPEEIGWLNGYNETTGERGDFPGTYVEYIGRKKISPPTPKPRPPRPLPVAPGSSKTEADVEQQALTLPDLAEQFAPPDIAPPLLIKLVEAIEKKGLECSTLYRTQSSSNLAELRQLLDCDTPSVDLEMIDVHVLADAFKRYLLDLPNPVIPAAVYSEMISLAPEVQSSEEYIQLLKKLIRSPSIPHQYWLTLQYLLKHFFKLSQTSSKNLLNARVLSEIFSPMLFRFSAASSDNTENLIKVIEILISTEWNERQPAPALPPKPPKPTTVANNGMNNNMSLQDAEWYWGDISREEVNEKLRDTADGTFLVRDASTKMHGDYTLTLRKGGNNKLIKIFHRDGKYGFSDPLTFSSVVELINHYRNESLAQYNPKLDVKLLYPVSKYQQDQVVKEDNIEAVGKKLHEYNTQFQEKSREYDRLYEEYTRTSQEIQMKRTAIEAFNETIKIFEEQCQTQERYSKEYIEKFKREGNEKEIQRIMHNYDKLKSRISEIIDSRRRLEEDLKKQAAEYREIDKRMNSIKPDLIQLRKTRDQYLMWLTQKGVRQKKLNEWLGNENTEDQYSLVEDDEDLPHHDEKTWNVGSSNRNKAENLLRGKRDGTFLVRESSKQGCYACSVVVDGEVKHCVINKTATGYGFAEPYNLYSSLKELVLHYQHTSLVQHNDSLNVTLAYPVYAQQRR
In short: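 ADP-Glo luminescence tracked ADP formed by the mutant p110α(H1047R)/p85 complex during a 120 min room-temperature reaction with 25 µM ATP and 5.35 µg/ml PI(4,5)P2:PS lipid substrate, started after 30 min enzyme–compound–substrate pre-incubation (compound […], 50 mM HEPES pH 7.5). IC50 via four-parameter logistic equation.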

Row | Compound | IC50 (WT cell line SK-BR-3 [1]) | IC50 (WT cell line SK-BR-3 [2]) | IC50 [3] | selectivity: WT/H1047R [3]
1 | Cc1cc(C(C)Nc2ccccc2C(=O)O)c2cc(-c3ccc(C(F)(F)F)nc3)n(C)c(=O)c2c1 (centres unmarked) [Example 86, 2-((1-(2,7-dimethyl-1-oxo-3-(6-(trifluoromethyl)pyridin-3-yl)-1,2-dihydroisoquinolin-5-yl)ethyl)amino)benzoic acid] | > 10000 nM | > 10000 nM | 575 nM | 26.3
2 | Cc1cc(C(C)Nc2ccccc2C(=O)O)c2cc(-c3ccccc3C#N)n(C)c(=O)c2c1 (centres unmarked) [Example 32, 2-((1-(3-(2-cyanophenyl)-2,7-dimethyl-1-oxo-1,2-dihydroisoquinolin-5-yl)ethyl)amino)benzoic acid] | > 10000 nM | > 10000 nM | 332 nM | 184.0
3 | Cc1cc(C(C)Nc2ccccc2C(=O)O)c2cc(-c3ccc4c(c3)CN(C)C4=O)n(C)c(=O)c2c1 (centres unmarked) [Example 70, 2-((1-(2,7-dimethyl-3-(2-methyl-1-oxoisoindolin-5-yl)-1-oxo-1,2-dihydroisoquinolin-5-yl)ethyl)amino)benzoic acid] | > 10000 nM | > 10000 nM | 872 nM | 24.2
4 | Cc1cc([C@@H](C)Nc2ccccc2C(=O)O)c2cc(-c3ccc(-c4cnn(C)c4)cc3)n(C)c(=O)c2c1 [Example 40, (R)-2-((1-(2,7-dimethyl-3-(4-(1-methyl-1H-pyrazol-4-yl)phenyl)-1-oxo-1,2-dihydroisoquinolin-5-yl)ethyl)amino)benzoic acid] | 814 nM | > 10000 nM | 55 nM | 93.1
5 | Cc1cc(C(C)Nc2ccccc2C(=O)O)c2cc(-c3ccc(C4(O)CCOCC4)cc3)n(C)c(=O)c2c1 (centres unmarked) [Example 73, 2-((1-(3-(4-(4-hydroxytetrahydro-2H-pyran-4-yl)phenyl)-2,7-dimethyl-1-oxo-1,2-dihydroisoquinolin-5-yl)ethyl)amino)benzoic acid] | > 10000 nM | > 10000 nM | 1030 nM | 25.4
6 | Cc1cc(C(C)Nc2c(C(=O)O)sc3ccccc23)c2cc(-c3ccccc3)n(C)c(=O)c2c1 (centres unmarked) [Example 48, 3-((1-(2,7-dimethyl-1-oxo-3-phenyl-1,2-dihydroisoquinolin-5-yl)ethyl)amino)benzo[b]thiophene-2-carboxylic acid] | 3790 nM | > 10000 nM | 829 nM | 6.2
7 | Cc1cc(C(C)Nc2ccccc2C(=O)O)c2cc(-c3ccn(-c4ccccc4)c3)n(C)c(=O)c2c1 (centres unmarked) [Example 77, 2-((1-(2,7-dimethyl-1-oxo-3-(1-phenyl-1H-pyrrol-3-yl)-1,2-dihydroisoquinolin-5-yl)ethyl)amino)benzoic acid] | 2040 nM | > 10000 nM | 325 nM | 21.4
8 | Cc1cc(C(C)Nc2ccccc2C(=O)O)c2cc(-c3cnn(CC45CC6C[C@H](C4)C[C@H](C6)C5)c3C)n(C)c(=O)c2c1 (stereo partly drawn) [Example 87, 2-((1-(3-(1-(((3S,5S)-adamantan-1-yl)methyl)-5-methyl-1H-pyrazol-4-yl)-2,7-dimethyl-1-oxo-1,2-dihydroisoquinolin-5-yl)ethyl)amino)benzoic acid] | 2840 nM | > 10000 nM | 1500 nM | 23.5
9 | Cc1cc(C(C)Nc2ccccc2C(=O)O)c2cc(-c3cccc(C#N)c3)n(C)c(=O)c2c1 (centres unmarked) [Example 3, 2-((1-(3-(3-cyanophenyl)-2,7-dimethyl-1-oxo-1,2-dihydroisoquinolin-5-yl)ethyl)amino)benzoic acid] | 4350 nM | > 10000 nM | 671 nM | 14.7
10 | Cc1cc(C(C)Nc2ccccc2C(=O)O)c2cc(-c3ccc(N4CCC(C)(O)CC4)nc3)n(C)c(=O)c2c1 (centres unmarked) [Example 72, 2-((1-(3-(6-(4-hydroxy-4-methylpiperidin-1-yl)pyridin-3-yl)-2,7-dimethyl-1-oxo-1,2-dihydroisoquinolin-5-yl)ethyl)amino)benzoic acid] | > 10000 nM | > 10000 nM | 1070 nM | 19.2
11 | Cc1cc([C@@H](C)Nc2ccccc2C(=O)O)c2cc(-c3ccccc3)n(C)c(=O)c2c1 [Example 30, (R)-2-((1-(2,7-dimethyl-1-oxo-3-phenyl-1,2-dihydroisoquinolin-5-yl)ethyl)amino)benzoic acid] | 2500 nM | > 10000 nM | 104 nM | 24.1
12 | Cc1cc([C@@H](C)Nc2ccccc2C(=O)O)c2cc(-c3ccc(F)cc3)n(C)c(=O)c2c1 [Example 34, (R)-2-((1-(3-(4-fluorophenyl)-2,7-dimethyl-1-oxo-1,2-dihydroisoquinolin-5-yl)ethyl)amino)benzoic acid] | > 10000 nM | > 10000 nM | 107 nM | 39.0
13 | Cc1cc(C(C)Nc2ccccc2C(=O)O)c2cc(-c3cnn(-c4ccc(C(N)=O)cn4)c3)n(C)c(=O)c2c1 (centres unmarked) [Example 16, 2-((1-(3-(1-(5-carbamoylpyridin-2-yl)-1H-pyrazol-4-yl)-2,7-dimethyl-1-oxo-1,2-dihydroisoquinolin-5-yl)ethyl)amino)benzoic acid] | > 10000 nM | > 10000 nM | 240 nM | 15.3
14 | Cc1cc(C(C)Nc2ccccc2C(=O)O)c2cc(-c3ccc(-c4cnn(C)c4)cc3)n(C)c(=O)c2c1 (centres unmarked) [Example 23, 2-((1-(2,7-dimethyl-3-(4-(1-methyl-1H-pyrazol-4-yl)phenyl)-1-oxo-1,2-dihydroisoquinolin-5-yl)ethyl)amino)benzoic acid] | 1700 nM | > 10000 nM | 223 nM | 9.1
15 | COc1ccc(-c2cc3c(C(C)Nc4ccccc4C(=O)O)cc(C)cc3c(=O)n2C)cn1 (centres unmarked) [Example 15, 2-((1-(3-(6-methoxypyridin-3-yl)-2,7-dimethyl-1-oxo-1,2-dihydroisoquinolin-5-yl)ethyl)amino)benzoic acid] | 8360 nM | > 10000 nM | 858 nM | 8.0
16 | Cc1cc(C(C)Nc2ccccc2C(=O)O)c2cc(-c3ccc(F)c(F)c3)n(C)c(=O)c2c1 (centres unmarked) [Example 9, 2-((1-(3-(3,4-difluorophenyl)-2,7-dimethyl-1-oxo-1,2-dihydroisoquinolin-5-yl)ethyl)amino)benzoic acid] | 3640 nM | > 10000 nM | 187 nM | 14.5
17 | Cc1cc(C(C)Nc2ccccc2C(=O)O)c2cc(-c3ccc(C(C)(C)O)cc3)n(C)c(=O)c2c1 (centres unmarked) [Example 51, 2-((1-(3-(4-(2-hydroxypropan-2-yl)phenyl)-2,7-dimethyl-1-oxo-1,2-dihydroisoquinolin-5-yl)ethyl)amino)benzoic acid] | 6450 nM | > 10000 nM | 247 nM | 42.1
18 | COc1cccc(-c2cc3c(C(C)Nc4ccccc4C(=O)O)cc(C)cc3c(=O)n2C)c1 (centres unmarked) [Example 13, 2-((1-(3-(3-methoxyphenyl)-2,7-dimethyl-1-oxo-1,2-dihydroisoquinolin-5-yl)ethyl)amino)benzoic acid] | 3590 nM | > 10000 nM | 192 nM | 30.3
19 | Cc1cc([C@@H](C)Nc2ccccc2C(=O)O)c2cc(-c3ccc(C(C)(C)O)nc3)n(C)c(=O)c2c1 [Example 56, (R)-2-((1-(3-(6-(2-hydroxypropan-2-yl)pyridin-3-yl)-2,7-dimethyl-1-oxo-1,2-dihydroisoquinolin-5-yl)ethyl)amino)benzoic acid] | > 10000 nM | > 10000 nM | 1050 nM | 16.3
20 | CC(Nc1ccccc1C(=O)O)c1cccn2c(=O)cc(-c3ccccc3)cc12 (centres unmarked) [Example 25, 2-((1-(4-oxo-2-phenyl-4H-quinolizin-9-yl)ethyl)amino)benzoic acid] | > 10000 nM | > 10000 nM | 229 nM | 104.0
